Assay results taken from patent publication US11439657B2, “Cancer stem cell growth inhibitor using miRNA” (CancerStem Tech Inc., priority 2017, dated 2022).
Entries after “also recorded” stand apart in the source; their conditions may differ.

Experiments:
[1] = tested on: human pancreatic cancer cells (Bxpc3 line); experiment: Antitumor effect on human pancreatic cancer cells (1), cell count after transfection; assay type: cell-based; conditions: 10 pmol/well, FIG. 8; for antitumor effect: 48 hours, positive control hsa-miR-34a; for proliferation inhibitory effect on pancreatic cancer cells: cells counted 48 hours later
Procedure: (§1) A cell suspension prepared by suspending human pancreatic cancer cells (Bxpc3 line) in D-MEM medium (containing 10% by volume FBS) was seeded in each well of a 24-well plate at 3×10^3 cells/well, followed by culture at 37° C. overnight. Thereafter, according to the lipofectamin 2000 protocol, each miRNA was transfected at 10 pmol/well, and 48 hours later, the cells were counted. In addition, tests were also conducted under the same condition on a case where the miRNA was not introduced (untreated group), a case where hsa-miR-34a (SEQ ID NO: 8) was used (positive control) in place of the miRNA, and a case where a control miRNA (SEQ ID NO: 9) was used (control miRNA, negative control) in place of the selected miRNA.

[2] = tested on: human pancreatic cancer cells (PSN-1 line); experiment: Antitumor effect on human pancreatic cancer cells (2), cell count after transfection; assay type: cell-based; conditions: 10 pmol/well, 48 hours, FIG. 9
Procedure: as §1
As to hsa-miR-136-5p, hsa-miR-3065-3p and hsa-miR-181a-5p, evaluation was performed of the antitumor effect on human pancreatic cancer cells. The specific test method is the same as that for Test Example 4 except that a PSN-1 line was used as human pancreatic cancer cells.

[3] = tested on: human esophageal cancer cells (TE11 line); experiment: Antitumor effect on human esophageal cancer cells, cell count after transfection; assay type: cell-based; conditions: 10 pmol/well, FIG. 12; for antitumor effect: 72 hours, positive control hsa-miR-34a; for proliferation inhibitory effect on esophageal cancer cells: cells counted 72 hours after transfection
Procedure: as §1
As to hsa-miR-136-5p, hsa-miR-3065-3p, hsa-miR-4727-5p, hsa-miR-378g and hsa-miR-181a-5p, evaluation was performed of the antitumor effect on human esophageal cancer cells. The specific test method is the same as that for Test Example 4 except that human esophageal cancer cells (TE11 line) were used as cancer cells, and that the cells were counted 72 hours after transfection.

[4] = tested on: cancer stem cell population (ZsGreen+) established from pancreatic cancer cell line Panc-1; experiment: Screening of miRNAs: cell count (cell viability) of the cancer stem cell population after transfection; assay type: cell-based, human; conditions: miRNA 10 pmol/well, lipofectamin 2000, cells counted 48 and 72 hours later, FIG. 4
Source text: A cancer stem cell line was established by transducing a pancreatic cancer cell line (Panc-1) with an ODC (Ornithine Decarboxylase)-Degron system capable of visualizing low metabolism that is a property of cancer stem cells using a retrovirus vector (FIG. 1a). The base sequence coding the used ODC-Degron is as set forth in SEQ ID NO: 10. Usually, cancer stem cells are so 26s proteasome hypometabolic that they cannot degrade the introduced fluorescently labeled Ornithine Decarboxylase Degron, and thus the fluorescent protein sufficiently accumulates to provide visualization.
However, even when the ODC-degron system was introduced into the pancreatic cancer cell line Panc-1, only about 0.06% cells emitting fluorescence (green) were obtained in total. With such a small number of cancer stem cells, a series of experiments including drug screening cannot be performed. Accordingly, further enrichment of cancer stem cells provided a cancer stem cell population in which cells having observed fluorescent coloring (i.e., cancer stem cells) accounted for about 81.18% in total (FIG. 1b). The obtained cancer stem cell population was designated as ZsGreen+.
A cell suspension prepared by suspending the cancer stem cell population (ZsGreen+) in a medium (DMEM medium containing 10% by volume FBS) was seeded in each well of a 24-well plate at a density of 5000 to 10000 cells/well, followed by culture at 37° C. overnight. Thereafter, according to the lipofectamin 2000 protocol, each miRNA was transfected at 10 pmol/well, and 48 hours and 72 hours later, the cells were counted. In addition, tests were also conducted under the same condition on a case where the miRNA was not introduced (untreated group, control), a case where has-miR-34a (SEQ ID NO: 8) was used (positive control) in place of the selected miRNA, and a case where a control miRNA (SEQ ID NO: 9) was used (NC1, negative control) in place of the selected miRNA. In addition, for comparison, the non-cancer stem cell population (ZsGreen−) was used in place of the cancer stem cell population (ZsGreen+) to conduct tests under the same condition.
The ratio of the number of cells under each condition to the number of control cells into which the miRNA was not introduced (cell viability, %) was determined.

[5] = tested on: human large bowel cancer cells (DLD1 line); experiment: Antitumor effect on human large bowel cancer cells, cell count after transfection; assay type: cell-based; conditions: 10 pmol/well, FIG. 11; for antitumor effect: 72 hours, positive control hsa-miR-34a; for proliferation inhibitory effect on large bowel cancer cells: cells counted 72 hours after transfection
Procedure: as §1
As to hsa-miR-136-5p, hsa-miR-3065-3p, hsa-miR-4727-5p, hsa-miR-378g, hsa-miR-181a-5p, hsa-miR-362-5p and hsa-miR-608, evaluation was performed of the antitumor effect on human large bowel cancer cells. The specific test method is the same as that for Test Example 4 except that human large bowel cancer cells (DLD1 line) were used as cancer cells, and that the cells were counted 72 hours after transfection.

Row | Substance | antitumor effect [1] | proliferation inhibitory effect on pancreatic cancer cells [1] | antitumor effect [2] | proliferation inhibitory effect on pancreatic cancer cells [2] | antitumor effect [3] | proliferation inhibitory effect on esophageal cancer cells [3] | proliferation inhibitory effect on cancer stem cells (cell viability) [4] | antitumor effect [5] | proliferation inhibitory effect on large bowel cancer cells [5]
1 | hsa-miR-136-5p: human-derived miR-136-5p; base sequence set forth in SEQ ID NO: 1 as mature miRNA (ACUCCAUUUGUUUUGAUGAUGGA; listed as RNA, chemistry not given here; listed as Homo sapiens) | much better antitumor effect than that of hsa-miR-34a; also recorded: particularly remarkable antitumor effect | strong proliferation inhibitory effect | particularly remarkable antitumor effect | strong proliferation inhibitory effect | much better antitumor effect than that of hsa-miR-34a | strong proliferation inhibitory effect | effectively suppress proliferation of cancer stem cells; also recorded: prominent proliferation inhibitory effect | much better antitumor effect than that of hsa-miR-34a; also recorded: particularly remarkable antitumor effect | strong proliferation inhibitory effect
2 | hsa-miR-3065-3p: human-derived miR-3065-3p; base sequence set forth in SEQ ID NO: 2 as mature miRNA (UCAGCACCAGGAUAUUGUUGGAG; listed as RNA, chemistry not given here; listed as Homo sapiens) | much better antitumor effect than that of hsa-miR-34a | strong proliferation inhibitory effect | – | strong proliferation inhibitory effect | much better antitumor effect than that of hsa-miR-34a; also recorded: particularly remarkable antitumor effect | strong proliferation inhibitory effect | effectively suppress proliferation of cancer stem cells; also recorded: prominent proliferation inhibitory effect | much better antitumor effect than that of hsa-miR-34a; also recorded: particularly remarkable antitumor effect | strong proliferation inhibitory effect
